ChEMBL document CHEMBL4393720, “Design, synthesis and biological evaluation of bromophenol-thiazolylhydrazone hybrids inhibiting the interaction of translation initiation factors eIF4E/eIF4G as multifunctional agents for cancer treatment” (Eur J Med Chem, 2019)
Calls of active or inactive are those of the source. The calls are words filed in the database; no cut-off is given here.

Experiments:
[1] = Oral bioavailability in female Sprague-Dawley rat at 10 mg/kg measured up to 24 hrs by LC/MS-MS analysis; assay type: ADME, organism-based; details: in vivo
A549 [2] = experiment: Induction of apoptosis in human A549 cells at 2.5 uM incubated for 48 hrs in presence of pan caspase inhibitor, Z-VAD-FMK by annexin-V and propidium iodide staining based flow cytometric analysis; assay type: functional, cell-based
[3] = Toxicity in athymic nude mouse xenografted with human A549 cells assessed as effect on liver morphological changes at 25 to 50 mg/kg, ip administered once daily for 21 days by H and E staining based assay; assay type: organism-based; details: in vivo, 504 h
[4] = Toxicity in athymic nude mouse xenografted with human A549 cells assessed as effect on heart morphological changes at 25 to 50 mg/kg, ip administered once daily for 21 days by H and E staining based assay; assay type: organism-based; details: in vivo, 504 h
[5] = AUC (0 to 24 hrs) in female Sprague-Dawley rat at 10 mg/kg, po measured up to 24 hrs by LC/MS-MS analysis; assay type: ADME, organism-based; design: time < 24 hr, dose 10 mg/kg, route oral; details: in vivo
[6] = Half life in female Sprague-Dawley rat at 10 mg/kg, po measured up to 24 hrs by LC/MS-MS analysis; assay type: ADME, organism-based; details: in vivo
[7] = Inhibition of PI3K/Akt/mTOR signalling pathway in human A549 cells assessed as reduction in Akt phosphorylation at 1 to 5 uM incubated for 48 hrs by Western blot analysis; assay type: cell-based
[8] = Tmax in male Sprague-Dawley rat at 2 mg/kg, iv measured up to 24 hrs by LC/MS-MS analysis; assay type: ADME, organism-based; details: in vivo
[9] = Cmax in female Sprague-Dawley rat at 2 mg/kg, iv measured up to 24 hrs by LC/MS-MS analysis; assay type: ADME, organism-based; design: dose 2 mg/kg, route intravenous; details: in vivo
[10] = Total plasma clearance in female Sprague-Dawley rat at 2 mg/kg, iv measured up to 24 hrs by LC/MS-MS analysis; assay type: ADME, organism-based
[11] = Inhibition of PI3K/Akt/mTOR in human A549 cells assessed as increase in eIF4E/4EBP1 interaction incubated for 48 hrs by m7GTP pull down assay; assay type: cell-based
A549 [12] = experiment: Antitumor activity against human A549 cells xenografted in athymic nude mouse assessed as necrosis of tumor cells and loosely packed cells at 25 to 50 mg/kg, ip administered once daily for 21 days by hematoxylin and eosin staining based microscopic analysis; assay type: functional, organism-based
A549 [13] = experiment: Induction of apoptosis in human A549 cells assessed as increase in Bax level at 1 to 5 uM incubated for 48 hrs by Western blot analysis; assay type: functional, cell-based
HepG2 = experiment: Antiproliferative activity against human HepG2 cells assessed as inhibition of cell growth incubated for 48 hrs by MTT assay; assay type: functional, cell-based; details: HepG2, 48 h
A549 [14] = experiment: Induction of apoptosis in human A549 cells assessed as activation of PARP at 1 to 5 uM incubated for 48 hrs by Western blot analysis; assay type: functional, cell-based
[15] = Subacute toxicity in SPF Kunming mouse assessed as mortality at 2000 mg/kg, po administered once a day for 14 days; assay type: organism-based; details: in vivo, 336 h
[16] = Subacute toxicity in SPF Kunming mouse assessed as heart morphological changes at 2000 mg/kg, po administered once a day for 14 days by H and E staining based microscopic analysis; assay type: organism-based; details: in vivo, 336 h
[17] = Toxicity in athymic nude mouse xenografted with human A549 cells assessed as effect on lung morphological changes at 25 to 50 mg/kg, ip administered once daily for 21 days by H and E staining based assay; assay type: organism-based; details: in vivo, 504 h
A549 [18] = experiment: Induction of mitochondrial membrane potential loss in human A549 cells at 1 to 5 uM incubated for 48 hrs by JC-1 staining based flow cytometer analysis; assay type: functional, cell-based
[19] = biological target: Eukaryotic translation initiation factor 4E (Homo sapiens) (UniProt P06730); experiment: Inhibition of eIF4E phosphorylation in human A549 cells assessed as decrease in c-myc expression at 1 to 5 uM incubated for 48 hrs by western blot analysis; assay type: cell-based
A549 [20] = experiment: Induction of ROS generation in human A549 cells at 1 to 5 uM incubated for 48 hrs by DCFH-DA staining based FACS analysis; assay type: functional, cell-based
[21] = Toxicity in athymic nude mouse xenografted with human A549 cells assessed as changes in body weight at 25 to 50 mg/kg, ip administered once daily for 21 days; assay type: organism-based; details: in vivo, 504 h
A549 [22] = experiment: In vivo inhibition of PI3K/Akt/mTOR signalling pathway in human A549 cells xenografted in athymic nude mouse assessed as decrease in phosphorylation of Akt at 25 to 50 mg/kg, ip administered once daily for 21 days by Western blot analysis; assay type: functional, organism-based
[23] = Tmax in female Sprague-Dawley rat at 2 mg/kg, iv measured up to 24 hrs by LC/MS-MS analysis; assay type: ADME, organism-based; details: in vivo
U-87 MG = experiment: Antiproliferative activity against human U87MG cells assessed as inhibition of cell growth incubated for 48 hrs by MTT assay; assay type: functional, cell-based, U-87MG ATCC
[24] = AUC (0 to 24 hrs) in male Sprague-Dawley rat at 2 mg/kg, iv measured up to 24 hrs by LC/MS-MS analysis; assay type: ADME, organism-based; design: dose 2 mg/kg, time < 24 hr, route intravenous; details: in vivo
A549 [25] = experiment: Inhibition of colony formation in human A549 cells incubated for 10 days by crystal violet staining based assay; assay type: functional, cell-based
Caco-2 = experiment: Antiproliferative activity against human Caco2 cells assessed as inhibition of cell growth incubated for 48 hrs by MTT assay; assay type: functional, cell-based; details: Caco-2, 48 h
A549 [26] = experiment: Antiproliferative activity against human A549 cells assessed as inhibition of cell growth incubated for 48 hrs by MTT assay; assay type: functional, cell-based; details: A549, 48 h
[27] = Oral bioavailability in male Sprague-Dawley rat at 10 mg/kg measured up to 24 hrs by LC/MS-MS analysis; assay type: ADME, organism-based; details: in vivo
A549 [28] = experiment: Induction of apoptosis in human A549 cells assessed as activation of caspase 3 at 1 to 5 uM incubated for 48 hrs by Western blot analysis; assay type: functional, cell-based
[29] = Total plasma clearance in male Sprague-Dawley rat at 2 mg/kg, iv measured up to 24 hrs by LC/MS-MS analysis; assay type: ADME, organism-based
[30] = Acute toxicity in SPF Kunming mouse assessed as body weight at 2000 mg/kg, po administered as single dose measured at day 7 (reference value: 30.2g); assay type: organism-based; details: in vivo
A549 [31] = experiment: Induction of apoptosis in human A549 cells assessed as nuclear shrinkage and chromatin condensation at 1 to 5 uM incubated for 48 hrs by Hoechst 33258 staining based fluorescence microscopy; assay type: functional, cell-based
A549 [32] = experiment: Induction of autophagy in human A549 cells assessed as change in LC3 expression at 1 to 5 uM incubated for 48 hrs by Western blot analysis; assay type: functional, cell-based
[33] = Acute toxicity in SPF Kunming mouse assessed as body weight at 2000 mg/kg, po administered as single dose measured at day 14 (reference value: 34.7g); assay type: organism-based; details: in vivo
[34] = Acute toxicity in SPF Kunming mouse assessed as body weight at 500 mg/kg, po administered as single dose measured at day 7 (reference value: 30.2g); assay type: organism-based; details: in vivo
[35] = biological target: Eukaryotic translation initiation factor 4E (Homo sapiens) (UniProt P06730); experiment: Inhibition of eIF4E phosphorylation in human A549 cells incubated for 48 hrs by immunofluorescence method; assay type: cell-based
[36] = Cmax in female Sprague-Dawley rat at 10 mg/kg, po measured up to 24 hrs by LC/MS-MS analysis; assay type: ADME, organism-based; design: dose 10 mg/kg, route oral; details: in vivo

Sequence of Eukaryotic translation initiation factor 4E (Homo sapiens) (P06730 whole entry): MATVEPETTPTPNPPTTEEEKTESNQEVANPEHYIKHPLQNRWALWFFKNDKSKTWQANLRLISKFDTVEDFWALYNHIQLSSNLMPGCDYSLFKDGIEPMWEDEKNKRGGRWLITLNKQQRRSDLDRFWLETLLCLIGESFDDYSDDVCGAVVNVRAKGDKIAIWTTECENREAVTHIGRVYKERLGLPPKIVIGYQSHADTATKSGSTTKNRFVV

Q: For `Fc1ccc(/C=N/Nc2nc(-c3ccc(C(F)(F)F)cc3)cs2)cc1F`, which bioavailability [1] is on record?
A: Its bioavailability is 31%.

Q: And the Activity (A549 [2])?
A: The Activity was “inactive”.

Q: What about the Activity [3] of the same compound?
A: The Activity was “Non-Toxic”.

Q: What about the Activity [4] of the same compound?
A: The Activity was “Non-Toxic”.

Q: What about the AUC(0-t) at 24 h [5] of the same compound?
A: Its AUC(0-t) at 24 h is 8.25 µM·h.

Q: What about the half-life [6] of the same compound?
A: Its half-life is 1.12 h.

Q: And the inhibition [7]?
A: The inhibition was “Active”.

Q: And the Tmax [8]?
A: Its Tmax is 2 h.

Q: And the Cmax [9]?
A: The Cmax was 126 µM.

Q: What about the clearance [10] of the same compound?
A: The clearance was 0.667 mL/min/kg.

Q: What about the Activity [11] of the same compound?
A: The Activity was “Active”.

Q: And the Activity (A549 [12])?
A: The Activity was “Active”.

Q: What about the Activity (A549 [13]) of the same compound?
A: The Activity was “Active”.

Q: What about the IC50 (HepG2) of the same compound?
A: The IC50 was 14.5 µM.

Q: What about the Activity (A549 [14]) of the same compound?
A: The Activity was “Active”.

Q: What about the Activity [15] of the same compound?
A: The Activity was “Non-Toxic”.

Q: What about the Activity [16] of the same compound?
A: The Activity was “Non-Toxic”.

Q: And the Activity [17]?
A: The Activity was “Non-Toxic”.

Q: What about the Activity (A549 [18]) of the same compound?
A: Its Activity is “Active”.

Q: And the inhibition [19]?
A: Its inhibition is “Active”.

Q: What about the Activity (A549 [20]) of the same compound?
A: The Activity was “Active”.

Q: What about the Activity [21] of the same compound?
A: Its Activity is “Non-Toxic”.

Q: And the inhibition (A549 [22])?
A: The inhibition was “Active”.

Q: What about the Tmax [23] of the same compound?
A: The Tmax was 2 h.

Q: And the IC50 (U-87 MG)?
A: Its IC50 is 29.9 µM.

Q: And the AUC(0-t) at 24 h [24]?
A: Its AUC(0-t) at 24 h is 155 µM·h.

Q: And the inhibition (A549 [25])?
A: Its inhibition is “Dose-dependent effect”.

Q: What about the IC50 (Caco-2) of the same compound?
A: The IC50 was 14.6 µM.

Q: What about the IC50 (A549 [26]) of the same compound?
A: Its IC50 is 2.61 µM.

Q: And the bioavailability [27]?
A: Its bioavailability is 17.2%.

Q: And the Activity (A549 [28])?
A: The Activity was “Active”.

Q: And the clearance [29]?
A: Its clearance is 0.5 mL/min/kg.

Q: And the Activity [30]?
A: The Activity was 29.9 g.

Q: What about the Activity (A549 [31]) of the same compound?
A: The Activity was “Active”.

Q: And the Activity (A549 [32])?
A: The Activity was “Active”.

Q: What about the Activity [33] of the same compound?
A: The Activity was 35 g.

Q: And the Activity [34]?
A: Its Activity is 29.1 g.

Q: And the inhibition [35]?
A: Its inhibition is “Active”.

Q: What about the Cmax [36] of the same compound?
A: The Cmax was 0.96 µM.
